These results are taken from patent publication US20210352863A1, “METHOD FOR CONTROLLING WEED BEETS AND OTHER WEEDS” (KWS SAAT SE & Co. KGaA, priority 2018, published 2021).

The conditions of data set [1]: acid form, at 25° C.; cited from earlier work.
In data set [2] the test system is sugar beet elite line T807 (mutagenized, M2 plants). Description: glyphosate treatment of surviving M2 plants of mutagenized sugar beet (screening and selection for resistance). The data set is classed as in vivo, Beta vulgaris (sugar beet). The following applies: 600 g/ha glyphosate acid equivalent. From the text:
6 kg seeds of sugar beet elite line T807 (3BT1760, M0 population) were mutagenized with 0.5% EMS and 0.3% and 0.5%, respectively ENU, and subsequently drilled for steck production. Stecks were replanted for seed production occupying an area of 5.8 ha. M1 population sizes were 75,000 seed producing plants for EMS and 19,000 plants for ENU mutagenized seeds. The following M2 seed amounts (values given for purified seed) has been obtained: 240 kg for 0.5% EMS (idents A and B), 548 kg for 0.3% ENU (idents C and D), and 256 kg 0.5% ENU (idents E and F).
176 kg of idents A and B and 75 kg of idents C, D, E and F were sown on an approximately 15 ha spanning field site. Approximately 1 month after sowing, the entire field was sprayed with 0.88 I/ha ROUNDUP® MAX (680 g/kg glyphosate acid equivalent). Approximately 6 weeks later, plants surviving the glyphosate treatment were collected in the field, transplanted to pots and further cultivated in the greenhouses. Surviving plants were treated with 600 g/ha glyphosate acid equivalent about 2 months later.
In order to identify the causative mutation behind the observed herbicide resistance sequencing analyses have been performed. Inter alia, the exon 2 of the epsp synthase gene in sugar beet was PCR amplified (primers BvEPSPS_Ex_2_for, 5′-[…]-3′ (SEQ ID NO: 13), and BvEPSPS_Ex_2_rev, 5′-[…]-3′ (SEQ ID NO: 14)) and Sanger sequenced (primers BvEPSPS_Ex2_Seqf, 5′-[…]-3′ (SEQ ID NO: 15), and BvEPSPS_Ex2_Seqr, 5′-[…]-3′ (SEQ ID NO: 16)) in all 172 surviving plants. The sugar beet plant with identifier 6MS1008-109 carried a C to T mutation that causes the P179S amino acid change in BvEPSPS. This artificial SNP has been independently confirmed by KASP marker assay using an in silico developed KASP-marker s1txepss02 (SEQ ID NOs: 17-19): […]

In the case of `O=C(O)CNCP(=O)(O)O` [glyphosate, N-phosphonomethylglycine], the solubility in water in data set [1] is reported as 1.16 % by weight. In addition, in data set [2] (approx. 50% of standard field treatment level, strong indication from screening and selection), the “resistance conferred by heterozygous P179S mutation in BvEPSPS” value is recorded as “complete resistance”. Moreover, the “plants that survived the treatment” value in data set [2] (potted greenhouse plants that had survived the field spray with ROUNDUP MAX) came to 172 plants. The “herbicide damage on surviving plants” value in data set [2] (the 172 surviving plants in the greenhouse) is given as “without any signs of herbicide damage”.
